In ChEMBL document CHEMBL1201862, “PubChem BioAssay data set” (2004) one finds EC50, AC50 and IC50 data, which are given here for 3 molecules.

Test [1] concerns the target T1, Alkaline phosphatase, tissue-nonspecific isozyme (Homo sapiens, UniProt P05186).
T1 sequence (P05186 whole entry): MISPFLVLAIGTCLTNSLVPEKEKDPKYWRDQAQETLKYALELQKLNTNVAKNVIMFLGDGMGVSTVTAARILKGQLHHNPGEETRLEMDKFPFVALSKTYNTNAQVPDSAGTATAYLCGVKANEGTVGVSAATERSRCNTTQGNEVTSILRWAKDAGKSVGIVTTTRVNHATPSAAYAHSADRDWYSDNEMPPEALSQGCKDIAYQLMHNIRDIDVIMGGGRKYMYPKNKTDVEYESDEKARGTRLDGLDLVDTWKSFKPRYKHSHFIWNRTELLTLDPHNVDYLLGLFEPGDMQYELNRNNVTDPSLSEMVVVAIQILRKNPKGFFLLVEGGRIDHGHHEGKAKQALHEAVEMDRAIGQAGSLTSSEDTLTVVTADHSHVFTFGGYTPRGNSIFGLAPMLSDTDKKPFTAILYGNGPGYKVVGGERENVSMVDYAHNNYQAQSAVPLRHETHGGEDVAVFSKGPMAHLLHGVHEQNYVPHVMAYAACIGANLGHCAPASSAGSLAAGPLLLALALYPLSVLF
Kind of test: TNAP enzyme activators, dose response, selectivity assay for mouse IAP activator project, biochemical, TNAP isozyme, mouse IAP uHTS hits (AID 488880). It is filed as functional.

Test [2] has as its target ORF 73 (Human herpesvirus 8, UniProt O40947). Kind of test: inhibitors of C-LANA binding to LBS DNA, dose response, biochemical, fluorescence polarization, cherry-picked samples (AID 504725).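 Further: fluorescence polarization of a labeled DNA duplex reporting LANA DNA binding; potency is for inhibitors that block LANA binding to the DNA.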 The arrangement: species or system Human gammaherpesvirus 8. Background: In fluorescence polarisation assays a small probe gives low polarisation when free and higher when bound to something large.

Test [3] has as its target T2, Histone-lysine N-methyltransferase NSD2 (Homo sapiens, UniProt O96028).
T2 sequence (O96028 whole entry): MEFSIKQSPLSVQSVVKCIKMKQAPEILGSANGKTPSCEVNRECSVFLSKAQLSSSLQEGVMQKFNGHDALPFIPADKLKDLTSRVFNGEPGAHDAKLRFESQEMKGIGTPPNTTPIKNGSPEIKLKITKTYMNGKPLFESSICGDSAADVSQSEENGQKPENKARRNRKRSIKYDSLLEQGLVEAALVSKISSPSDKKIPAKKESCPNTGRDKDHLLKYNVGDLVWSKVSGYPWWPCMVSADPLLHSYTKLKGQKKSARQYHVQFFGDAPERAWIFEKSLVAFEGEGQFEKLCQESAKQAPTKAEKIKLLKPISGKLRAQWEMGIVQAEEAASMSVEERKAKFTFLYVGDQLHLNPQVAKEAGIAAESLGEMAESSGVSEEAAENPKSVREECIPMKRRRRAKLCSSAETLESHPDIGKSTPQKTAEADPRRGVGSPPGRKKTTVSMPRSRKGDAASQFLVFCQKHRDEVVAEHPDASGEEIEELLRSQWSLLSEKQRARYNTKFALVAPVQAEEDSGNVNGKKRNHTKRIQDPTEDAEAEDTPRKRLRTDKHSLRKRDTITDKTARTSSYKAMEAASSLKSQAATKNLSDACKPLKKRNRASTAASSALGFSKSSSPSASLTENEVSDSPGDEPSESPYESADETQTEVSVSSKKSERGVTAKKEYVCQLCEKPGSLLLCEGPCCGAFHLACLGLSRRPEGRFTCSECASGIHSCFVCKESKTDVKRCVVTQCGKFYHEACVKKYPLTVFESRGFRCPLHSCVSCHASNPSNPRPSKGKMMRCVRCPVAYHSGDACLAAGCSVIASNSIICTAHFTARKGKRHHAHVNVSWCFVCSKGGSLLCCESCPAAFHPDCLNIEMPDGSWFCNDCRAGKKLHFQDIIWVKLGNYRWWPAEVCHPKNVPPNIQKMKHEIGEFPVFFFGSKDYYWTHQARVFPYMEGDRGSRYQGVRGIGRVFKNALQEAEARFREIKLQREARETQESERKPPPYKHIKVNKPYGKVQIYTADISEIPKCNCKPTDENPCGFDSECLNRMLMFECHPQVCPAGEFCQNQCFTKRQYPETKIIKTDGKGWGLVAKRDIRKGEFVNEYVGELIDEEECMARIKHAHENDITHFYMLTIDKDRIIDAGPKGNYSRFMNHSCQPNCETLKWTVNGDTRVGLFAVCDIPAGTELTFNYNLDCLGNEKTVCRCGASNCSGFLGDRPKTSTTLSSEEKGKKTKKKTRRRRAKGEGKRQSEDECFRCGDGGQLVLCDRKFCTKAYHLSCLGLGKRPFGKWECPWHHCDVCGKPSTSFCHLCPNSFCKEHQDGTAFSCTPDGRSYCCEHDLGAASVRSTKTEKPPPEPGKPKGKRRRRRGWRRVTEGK
The class given is biochemical.

For test [4], the target named is Large T antigen (Simian virus 40, UniProt P03070). It is filed as functional, Betapolyomavirus macacae.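 Further: Confirmatory-stage PubChem screen for compounds that inhibit SV40 T antigen.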
Sequence of Large T antigen (P03070 whole entry): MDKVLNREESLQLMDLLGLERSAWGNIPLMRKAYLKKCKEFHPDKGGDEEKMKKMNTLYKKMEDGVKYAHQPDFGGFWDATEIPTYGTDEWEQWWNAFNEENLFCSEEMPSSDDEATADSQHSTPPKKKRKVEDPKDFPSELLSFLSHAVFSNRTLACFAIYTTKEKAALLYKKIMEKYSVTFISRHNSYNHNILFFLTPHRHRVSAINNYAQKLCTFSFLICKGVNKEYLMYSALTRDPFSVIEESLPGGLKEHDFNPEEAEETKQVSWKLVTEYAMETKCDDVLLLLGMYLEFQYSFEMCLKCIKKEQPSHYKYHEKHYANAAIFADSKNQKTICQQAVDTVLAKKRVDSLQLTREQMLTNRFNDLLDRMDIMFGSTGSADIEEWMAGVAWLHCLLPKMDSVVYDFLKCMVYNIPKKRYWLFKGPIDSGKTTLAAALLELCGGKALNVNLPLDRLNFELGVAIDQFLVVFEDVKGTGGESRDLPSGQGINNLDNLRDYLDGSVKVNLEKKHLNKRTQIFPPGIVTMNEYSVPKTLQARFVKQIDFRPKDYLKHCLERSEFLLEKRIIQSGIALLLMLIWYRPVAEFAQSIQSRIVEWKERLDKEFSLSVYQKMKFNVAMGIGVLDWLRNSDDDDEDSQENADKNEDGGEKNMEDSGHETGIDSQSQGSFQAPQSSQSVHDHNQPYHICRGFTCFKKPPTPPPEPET
For test [5], the target named is Intestinal-type alkaline phosphatase (Homo sapiens, UniProt P09923). Kind of test: activation of human intestinal alkaline phosphatase – biochemical, dose response (AID 488873). The class given is functional.
Sequence of Intestinal-type alkaline phosphatase (Homo sapiens, UniProt P09923) (P09923 whole entry): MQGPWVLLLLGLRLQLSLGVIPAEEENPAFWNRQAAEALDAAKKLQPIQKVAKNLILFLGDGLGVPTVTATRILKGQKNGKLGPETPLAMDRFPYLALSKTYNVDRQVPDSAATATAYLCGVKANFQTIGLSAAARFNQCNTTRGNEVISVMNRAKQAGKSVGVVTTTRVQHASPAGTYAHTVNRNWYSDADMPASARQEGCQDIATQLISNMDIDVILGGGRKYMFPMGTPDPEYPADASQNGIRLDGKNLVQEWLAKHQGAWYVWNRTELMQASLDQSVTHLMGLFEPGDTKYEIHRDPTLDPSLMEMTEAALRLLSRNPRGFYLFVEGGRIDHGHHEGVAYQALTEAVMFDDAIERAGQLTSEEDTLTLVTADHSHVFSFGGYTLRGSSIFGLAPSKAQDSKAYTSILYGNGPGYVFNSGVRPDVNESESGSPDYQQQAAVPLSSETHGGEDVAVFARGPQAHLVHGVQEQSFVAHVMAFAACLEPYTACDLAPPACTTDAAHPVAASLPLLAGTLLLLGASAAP
Test [6] addresses Intestinal-type alkaline phosphatase (Mus musculus, UniProt P24822). Kind of test: mouse intestinal alkaline phosphatase activators, dose response, biochemical, luminescence, uHTS hits (AID 488783). It is filed as functional.
Test [7] addresses T3, Rac GTPase-activating protein 1 (Homo sapiens, UniProt Q9H0H5).
T3 sequence (Q9H0H5 whole entry): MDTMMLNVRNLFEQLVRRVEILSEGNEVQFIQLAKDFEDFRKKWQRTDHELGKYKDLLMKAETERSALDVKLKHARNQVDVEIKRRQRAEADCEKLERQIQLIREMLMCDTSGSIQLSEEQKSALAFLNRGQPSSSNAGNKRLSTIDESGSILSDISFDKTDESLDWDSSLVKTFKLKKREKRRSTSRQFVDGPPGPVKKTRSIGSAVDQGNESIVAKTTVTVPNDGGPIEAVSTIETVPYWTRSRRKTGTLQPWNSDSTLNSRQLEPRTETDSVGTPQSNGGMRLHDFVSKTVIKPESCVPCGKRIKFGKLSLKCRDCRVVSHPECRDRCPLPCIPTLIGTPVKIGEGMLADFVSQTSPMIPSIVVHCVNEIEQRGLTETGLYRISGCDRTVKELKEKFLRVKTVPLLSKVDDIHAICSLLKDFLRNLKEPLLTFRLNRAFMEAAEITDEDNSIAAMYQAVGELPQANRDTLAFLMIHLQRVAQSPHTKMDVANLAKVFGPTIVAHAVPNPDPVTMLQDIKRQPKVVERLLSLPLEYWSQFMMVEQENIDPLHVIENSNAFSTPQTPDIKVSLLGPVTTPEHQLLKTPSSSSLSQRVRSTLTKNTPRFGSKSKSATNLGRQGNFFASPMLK
Kind of test: MgcRacGAP GTPase-activating activity inhibitors, confirmation, biochemical, ADP Hunter fluorescence, primary and confirmatory (AID 624330). The class given is functional.

The target of test [8] is T4, Mu-type opioid receptor (Homo sapiens, UniProt P35372). Kind of test: MOR antagonists, SAR follow-up, image-based (AID 2420).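 Further: compounds added before stimulation of receptor with agonist DAMGO.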 The class given is functional.
T4 sequence (P35372 whole entry): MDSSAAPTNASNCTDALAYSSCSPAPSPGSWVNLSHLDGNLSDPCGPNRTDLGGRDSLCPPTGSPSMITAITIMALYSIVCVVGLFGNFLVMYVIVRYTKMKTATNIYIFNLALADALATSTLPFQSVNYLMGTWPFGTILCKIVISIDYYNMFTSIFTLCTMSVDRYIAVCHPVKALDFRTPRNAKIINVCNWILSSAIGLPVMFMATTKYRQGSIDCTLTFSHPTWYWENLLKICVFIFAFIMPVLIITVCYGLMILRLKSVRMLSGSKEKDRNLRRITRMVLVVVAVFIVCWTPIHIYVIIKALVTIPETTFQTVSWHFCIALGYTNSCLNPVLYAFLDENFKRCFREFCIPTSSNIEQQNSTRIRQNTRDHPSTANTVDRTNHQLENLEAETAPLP
In test [9] the target is T5, Kappa-type opioid receptor (Homo sapiens, UniProt P41145). Kind of test: kappa opioid receptor blockers, cell-based, luminescence, beta-arrestin, SAR follow-up (AID 2285). It is filed as functional.
T5 sequence (P41145 whole entry): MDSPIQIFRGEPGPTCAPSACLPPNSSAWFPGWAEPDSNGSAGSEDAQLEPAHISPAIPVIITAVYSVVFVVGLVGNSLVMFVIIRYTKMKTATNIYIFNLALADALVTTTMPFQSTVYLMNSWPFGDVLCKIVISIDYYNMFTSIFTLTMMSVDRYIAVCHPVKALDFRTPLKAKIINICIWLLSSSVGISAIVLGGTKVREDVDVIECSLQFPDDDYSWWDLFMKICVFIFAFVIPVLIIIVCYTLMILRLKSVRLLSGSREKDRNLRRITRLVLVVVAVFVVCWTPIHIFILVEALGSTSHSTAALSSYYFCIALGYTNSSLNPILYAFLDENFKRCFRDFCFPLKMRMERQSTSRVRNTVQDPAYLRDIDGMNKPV
Test [10] deals with T4, Mu-type opioid receptor. The experiment in a line: MOR agonists by imaging, SAR follow-up, image-based (AID 2352). The class given is functional.
The target of test [11] is T6, Delta-type opioid receptor (Homo sapiens, UniProt P41143). Kind of test: DOR antagonists, SAR follow-up, image-based (AID 2357). The class given is functional.
T6 sequence (P41143 whole entry): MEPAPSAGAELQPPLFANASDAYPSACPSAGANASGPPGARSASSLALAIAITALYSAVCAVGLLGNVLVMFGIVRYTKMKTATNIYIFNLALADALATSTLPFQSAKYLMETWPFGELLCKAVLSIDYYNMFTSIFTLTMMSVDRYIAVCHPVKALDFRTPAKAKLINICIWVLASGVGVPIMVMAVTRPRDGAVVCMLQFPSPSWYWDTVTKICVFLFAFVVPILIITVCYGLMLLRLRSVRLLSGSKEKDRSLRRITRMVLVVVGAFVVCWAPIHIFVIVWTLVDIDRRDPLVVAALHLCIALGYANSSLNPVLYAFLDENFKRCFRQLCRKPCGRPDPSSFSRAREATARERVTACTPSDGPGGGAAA
For test [12], the target named is T5, Kappa-type opioid receptor. The experiment in a line: KOR antagonists by imaging, SAR follow-up, image-based (AID 2348). It is filed as functional.
Test [13] addresses T5, Kappa-type opioid receptor. The experiment in a line: KOR agonist analogs, imaging readout, SAR follow-up, image-based (AID 2359). It is filed as functional.
For test [14], the target named is T6, Delta-type opioid receptor. The experiment in a line: DOR agonists, SAR follow-up, image-based (AID 2370). It is filed as functional.
In test [15] the target is T5, Kappa-type opioid receptor. The experiment in a line: SAR analysis of small molecule agonists of the kappa opioid receptor via a luminescent beta-arrestin assay - Set 3. [Related pubchem assays (depositor defined):AID1777, AID1785, AID1786, AID1966, AID2133, AID2136, AID2284, AID2500]. The class given is functional.
Test [16] concerns the target T6, Delta-type opioid receptor. The experiment in a line: SAR Analysis of Agonists of the DOR Receptor using an Image-Based Assay - Set 3. [Related pubchem assays (depositor defined):AID1777, AID1786]. The class given is functional.
The target of test [17] is T5, Kappa-type opioid receptor. Kind of test: KOR agonist analogs, arrestin-GFP redistribution, SAR follow-up, imaging, image-based, set 3 (AID 488833). The class given is functional.
Test [18] has as its target T4, Mu-type opioid receptor. The experiment in a line: SAR Analysis of Agonists of the MOR Receptor using an Image-Based Assay - Set 3. [Related pubchem assays (depositor defined):AID1777, AID1785, AID1786, AID1966, AID2133, AID2136, AID2284, AID2285, AID2352]. It is filed as functional.

A word on the EC50: it is the concentration at which the effect is half-maximal. By AC50 is commonly meant the concentration at which the activity in the assay is half-maximal. In general, IC50 refers to the midpoint of a concentration-inhibition curve.

Structures are written as SMILES. The source made the active and inactive calls.

Sequence of ORF 73 (O40947 whole entry): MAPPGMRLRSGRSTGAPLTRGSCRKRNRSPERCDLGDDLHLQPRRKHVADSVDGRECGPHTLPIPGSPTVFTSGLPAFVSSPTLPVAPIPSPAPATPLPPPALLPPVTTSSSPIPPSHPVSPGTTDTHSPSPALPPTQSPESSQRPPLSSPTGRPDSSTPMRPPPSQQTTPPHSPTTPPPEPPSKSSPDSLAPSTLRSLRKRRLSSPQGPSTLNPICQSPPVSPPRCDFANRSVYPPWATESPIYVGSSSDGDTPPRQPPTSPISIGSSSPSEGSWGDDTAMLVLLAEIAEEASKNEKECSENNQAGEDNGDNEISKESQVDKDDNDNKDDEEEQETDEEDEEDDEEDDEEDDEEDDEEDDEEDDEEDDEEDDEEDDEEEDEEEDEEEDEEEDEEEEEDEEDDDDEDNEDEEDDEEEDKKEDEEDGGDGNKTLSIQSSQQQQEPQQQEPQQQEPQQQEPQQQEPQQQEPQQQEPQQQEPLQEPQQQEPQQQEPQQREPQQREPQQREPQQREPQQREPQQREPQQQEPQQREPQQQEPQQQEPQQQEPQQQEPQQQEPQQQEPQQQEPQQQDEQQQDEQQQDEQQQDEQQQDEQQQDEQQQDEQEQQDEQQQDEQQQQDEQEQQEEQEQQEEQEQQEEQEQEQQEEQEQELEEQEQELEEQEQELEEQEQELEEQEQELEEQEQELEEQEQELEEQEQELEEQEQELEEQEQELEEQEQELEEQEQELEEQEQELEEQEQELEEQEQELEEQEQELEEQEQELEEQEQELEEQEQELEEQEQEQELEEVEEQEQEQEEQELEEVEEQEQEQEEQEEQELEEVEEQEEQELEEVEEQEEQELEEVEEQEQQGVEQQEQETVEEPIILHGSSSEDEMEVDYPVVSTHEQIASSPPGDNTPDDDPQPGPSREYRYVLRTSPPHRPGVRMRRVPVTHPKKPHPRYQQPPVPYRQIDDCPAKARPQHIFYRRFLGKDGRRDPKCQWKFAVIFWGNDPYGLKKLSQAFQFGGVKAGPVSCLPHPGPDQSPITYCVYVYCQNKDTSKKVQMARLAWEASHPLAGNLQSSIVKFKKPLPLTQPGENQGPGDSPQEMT
Sequence of Intestinal-type alkaline phosphatase (Mus musculus, UniProt P24822) (P24822 whole entry): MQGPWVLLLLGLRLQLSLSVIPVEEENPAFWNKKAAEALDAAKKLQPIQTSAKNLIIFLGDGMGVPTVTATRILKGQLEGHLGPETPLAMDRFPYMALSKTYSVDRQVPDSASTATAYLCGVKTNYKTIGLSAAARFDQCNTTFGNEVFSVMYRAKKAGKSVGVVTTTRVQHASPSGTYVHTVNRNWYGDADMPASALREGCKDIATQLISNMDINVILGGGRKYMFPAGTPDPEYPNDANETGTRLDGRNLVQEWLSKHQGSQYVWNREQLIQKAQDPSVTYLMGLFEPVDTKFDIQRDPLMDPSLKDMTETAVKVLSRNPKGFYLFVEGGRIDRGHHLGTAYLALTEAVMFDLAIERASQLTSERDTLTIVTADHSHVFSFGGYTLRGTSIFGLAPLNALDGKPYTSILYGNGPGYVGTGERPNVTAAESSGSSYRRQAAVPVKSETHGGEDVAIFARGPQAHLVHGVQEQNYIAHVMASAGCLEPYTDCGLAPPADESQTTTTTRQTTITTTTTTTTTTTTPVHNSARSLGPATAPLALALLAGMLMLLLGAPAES

For `N=C1/C(=C/c2ccc(O)c(O)c2)C(=O)N=C2SC(CC(=O)N3CCCC3)=NN12`, the EC50 in test [1] was 9.2 µM (active); in test [5], 9.7 µM (active); in [6], 100 µM (inactive). For the same molecule, the AC50 is 161 µM (active) in [2] and 3.26 µM (active) in test [3]. In addition, the IC50 in [4] is 7.22 µM (active); in test [7], 66 µM (active).
Regarding `COc1ccc(N2CCN(CCCNC(=O)Cn3c(=O)c4cccn4c4ccccc43)CC2)cc1`, the IC50 in test [8] was > 32 µM (inactive); in test [9], 4.32 µM (active); in [11], > 32 µM (inactive); in test [12], 15.3 µM (inactive). Also, the EC50 in [10], in [13] and in test [14] was > 32 µM (inactive) each time.
As for `COc1cccc(CSc2nnc(-c3ccccn3)n2Cc2ccco2)c1`, the EC50 in [15] was 15.3 µM (inactive); in [16], > 64 µM (inactive); in [17], > 32 µM (inactive); in test [18], > 32 µM (inactive).
